The molecules below were run against T1, human TLR9 (Homo sapiens, UniProt Q9NR96) (assay: TLR9 inhibition reporter assay (HEK-Blue cells, SEAP reporter)). Conditions: HEK-Blue cells overexpressing human TLR9; stimulated with ODN2006 5 nM; 22 hour incubation; SEAP readout.
T1 sequence (Q9NR96 26-1032): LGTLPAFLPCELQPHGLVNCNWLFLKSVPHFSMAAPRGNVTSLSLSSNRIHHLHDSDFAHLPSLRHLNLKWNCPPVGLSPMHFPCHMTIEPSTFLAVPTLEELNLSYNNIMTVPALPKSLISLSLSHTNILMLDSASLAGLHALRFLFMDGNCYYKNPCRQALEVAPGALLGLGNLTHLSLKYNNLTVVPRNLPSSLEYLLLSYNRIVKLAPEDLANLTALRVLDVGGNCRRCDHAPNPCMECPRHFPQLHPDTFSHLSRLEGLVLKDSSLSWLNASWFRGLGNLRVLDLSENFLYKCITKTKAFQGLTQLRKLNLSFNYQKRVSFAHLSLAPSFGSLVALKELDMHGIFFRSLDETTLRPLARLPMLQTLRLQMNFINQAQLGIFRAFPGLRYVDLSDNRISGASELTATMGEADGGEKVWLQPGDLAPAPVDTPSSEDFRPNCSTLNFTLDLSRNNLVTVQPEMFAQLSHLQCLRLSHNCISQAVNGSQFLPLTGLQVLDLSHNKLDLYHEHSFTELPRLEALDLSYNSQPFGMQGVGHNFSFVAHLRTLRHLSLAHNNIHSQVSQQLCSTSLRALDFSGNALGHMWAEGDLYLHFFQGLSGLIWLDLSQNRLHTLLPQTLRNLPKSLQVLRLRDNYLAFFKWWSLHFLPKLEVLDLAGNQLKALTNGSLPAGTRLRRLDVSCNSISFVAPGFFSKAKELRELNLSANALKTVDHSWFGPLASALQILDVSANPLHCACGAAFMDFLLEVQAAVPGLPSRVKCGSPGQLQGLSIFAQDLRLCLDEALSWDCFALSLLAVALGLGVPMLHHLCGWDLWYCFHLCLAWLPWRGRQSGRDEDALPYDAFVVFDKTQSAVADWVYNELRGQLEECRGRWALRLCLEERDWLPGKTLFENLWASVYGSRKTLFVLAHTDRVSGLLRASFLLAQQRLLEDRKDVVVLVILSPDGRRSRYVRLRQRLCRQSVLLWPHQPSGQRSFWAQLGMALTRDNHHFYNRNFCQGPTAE
Assay type: cell-based
Experimental: TLR7/8/9 Inhibition Reporter Assays
HEK-Blue™-cells (Invivogen) overexpressing human TLR7, TLR8 or TLR9 receptors were used for screening inhibitors of these receptors using an inducible SEAP (secreted embryonic alkaline phosphatase) reporter gene under the control of the […] minimal promoter fused to five NF-κB and AP-1-binding sites. Briefly, cells are seeded into Greiner 384 well plates (15000 cells per well for TLR7, 20,000 for TLR8 and 25,000 for TLR9) and then treated with test compounds in DMSO to yield a final dose response concentration range of 0.05 nM-50 μM. After a 30 minute compound pre-treatment at room temperature, the cells are then stimulated with a TLR7 ligand (gardiquimod at a final concentration of 7.5 μM), TLR8 ligand (R848 at a final concentration of 15.9 μM) or TLR9 ligand (ODN2006 at a final concentration of 5 nM) to activate NF-κB and AP-1 which induce the production of SEAP. After a 22 hour incubation at 37° C., 5% CO2, SEAP levels are determined with the addition of HEK-Blue™ Detection reagent (Invivogen), a cell culture medium that allows for detection of SEAP, according to manufacturer's specifications. The percent inhibition is determined as the % reduction in the HEK-Blue signal present in wells treated with agonist plus DMSO alone compared to wells treated with a known inhibitor.

| IC50 [nM] | SMILES |
| --- | --- |
| 83 | Cc1cc(C2CCN(C3CCN(CC4CCC4)CC3)CC2)cn2cc(-c3ccc(S(C)(=O)=O)cc3)nc12 [Example 93, 6-(1′-(cyclobutylmethyl)-[1,4′-bipiperidin]-4-yl)-8-methyl-2-(4-(methylsulfonyl)phenyl)imidazo[1,2-a]pyridine] |
| 1000 | COCCN1CCN(c2ccc(-c3cc(C)c4nc(-c5ccc(S(C)(=O)=O)cc5)cn4c3)cc2)CC1 [Example 105, 6-(4-(4-(2-methoxyethyl)piperazin-1-yl)phenyl)-8-methyl-2-(4-(methylsulfonyl)phenyl) imidazo[1,2-a]pyridine] |
| 158 | CS(=O)(=O)c1ccc(-c2cn3cc(C4CCN(C5CCN(C6CC6)CC5)CC4)c(F)cc3n2)cc1 [Example 124, 6-(1′-cyclopropyl-[1,4′-bipiperidin]-4-yl)-7-fluoro-2-(4-(methylsulfonyl)phenyl) imidazo[1,2-a]pyridine] |
| 7330 | COc1ccc(-c2nc3n(n2)CC(C2CCC(N4CCN(C(C)C)CC4)CC2)CC3C)cc1OC (stereo not drawn) [Example 143, 2-(3,4-dimethoxyphenyl)-6-(4-(4-isopropylpiperazin-1-yl)cyclohexyl)-8-methyl-5,6,7,8-tetrahydro-[1,2,4]triazolo[1,5-a]pyridine] |
| 1460 | COc1ccc(-c2nc3n(n2)CC(c2ccc(N4CCN(C(C)C)CC4)cc2)CC3C)cc1OC (stereo not drawn) [Example 144, 2-(3,4-dimethoxyphenyl)-6-(4-(4-isopropylpiperazin-1-yl)phenyl)-8-methyl-5,6,7,8-tetrahydro-[1,2,4]triazolo[1,5-a]pyridine] |
| 342 | COc1ccc(-c2nc3n(n2)CC(C2CC4CCC(C2)N4C2CCN(C4CC4)CC2)CC3)cc1OC (stereo not drawn) [Example 145, 6-(8-(1-cyclopropylpiperidin-4-yl)-8-azabicyclo[3.2.1]octan-3-yl)-2-(3,4-dimethoxyphenyl)-5,6,7,8-tetrahydro-[1,2,4]triazolo[1,5-a]pyridine] |
| 909 | Cc1cc(-c2ccc(N3CCN(C(C)C)CC3)cc2)cn2nc(-c3ccc(S(C)(=O)=O)cc3)nc12 [Example 147, 6-(4-(4-isopropylpiperazin-1-yl)phenyl)-8-methyl-2-(4-(methylsulfonyl)phenyl)-[1,2,4]triazolo[1,5-a]pyridine] |
| 303 | COc1ccc(-c2nc3n(n2)CC(C2CC4CCC(C2)N4C2CCN(C(C)C)CC2)CC3)cc1OC (stereo not drawn) [Example 148, 2-(3,4-dimethoxyphenyl)-6-(8-(1-isopropylpiperidin-4-yl)-8-azabicyclo[3.2.1]octan-3-yl)-5,6,7,8-tetrahydro-[1,2,4]triazolo[1,5-a]pyridine] |
| 20900 | CC1CC(c2ccc(N3CCN(C(C)C)CC3)cc2)Cn2nc(-c3ccc(S(C)(=O)=O)cc3)nc21 (stereo not drawn) [Example 150, 6-(4-(4-isopropylpiperazin-1-yl)phenyl)-8-methyl-2-(4-(methylsulfonyl)phenyl)-5,6,7,8-tetrahydro-[1,2,4]triazolo[1,5-a]pyridine] |
| 1370 | COc1ccc(-c2nc3c(C)cc(-c4ccc(N5CC6CCC(C5)N6C(C)C)cc4)cn3n2)cc1OC [Example 151, 2-(3,4-dimethoxyphenyl)-6-(4-(8-isopropyl-3,8-diazabicyclo[3.2.1]octan-3-yl)phenyl)-8-methyl-[1,2,4]triazolo[1,5-a]pyridine] |
| 659 | Cc1cc(-c2ccc(N3CC4CCC(C3)N4C(C)C)cc2)cn2nc(-c3ccc(S(C)(=O)=O)cc3)nc12 [Example 153, 6-(4-(8-isopropyl-3,8-diazabicyclo[3.2.1]octan-3-yl)phenyl)-8-methyl-2-(4-(methylsulfonyl)phenyl)-[1,2,4]triazolo[1,5-a]pyridine] |
| 7740 | CC1CC(c2ccc(N3CC4CCC(C3)N4C(C)C)cc2)Cn2nc(-c3ccc(S(C)(=O)=O)cc3)nc21 (stereo not drawn) [Example 154, 6-(4-(8-isopropyl-3,8-diazabicyclo[3.2.1]octan-3-yl)phenyl)-8-methyl-2-(4-(methylsulfonyl)phenyl)-5,6,7,8-tetrahydro-[1,2,4]triazolo[1,5-a]pyridine] |
| 232 | COc1ccc(-c2nc3c(C)cc(C4CCN(C5CCN(C6CC6)CC5)CC4)cn3n2)cc1OC [Example 157, 6-(1′-cyclopropyl-[1,4′-bipiperidin]-4-yl)-2-(3,4-dimethoxyphenyl)-8-methyl-[1,2,4]triazolo[1,5-a]pyridine] |
| 152 | COc1ccc(-c2nc3c(C)cc(C4CCN(C5CCN(C(C)C)CC5)CC4)cn3n2)cc1OC [Example 158, 2-(3,4-dimethoxyphenyl)-6-(1′-isopropyl-[1,4′-bipiperidin]-4-yl)-8-methyl-[1,2,4]triazolo[1,5-a] pyridine] |
| 270 | Cc1cc(C2CCN(C3CCN(C4CC4)CC3)CC2)cn2nc(-c3ccc(S(C)(=O)=O)cc3)nc12 [Example 161, 6-(1′-cyclopropyl-[1,4′-bipiperidin]-4-yl)-8-methyl-2-(4-(methylsulfonyl)phenyl)-[1,2,4]triazolo[1,5-a]pyridine] |
| 390 | COc1ccc(-c2nc3ccc(C4CCN(C5CCN(C6CC6)CC5)CC4)cn3n2)cc1OC [Example 164, 6-(1′-cyclopropyl-[1,4′-bipiperidin]-4-yl)-2-(3,4-dimethoxyphenyl)-[1,2,4]triazolo[1,5-a]pyridine] |
| 113 | COc1ccc(-c2nc3ccc(C4CCN(C5CCN(C(C)C)CC5)CC4)cn3n2)cc1OC [Example 165, 2-(3,4-dimethoxyphenyl)-6-(1′-isopropyl-[1,4′-bipiperidin]-4-yl)-[1,2,4]triazolo[1,5-a]pyridine] |
| 628 | COc1ccc(-c2nc3ccc(-c4ccc(N5CC6CCC(C5)N6C(C)C)cc4)cn3n2)cc1OC [Example 166] |
| 1630 | CC(C)N1CCN(c2ccc(-c3ccc4nc(-c5ccc(S(C)(=O)=O)cc5)nn4c3)cc2)CC1 [Example 167, 6-(4-(4-isopropylpiperazin-1-yl)phenyl)-2-(4-(methylsulfonyl)phenyl)-[1,2,4]triazolo[1,5-a]pyridine] |

| SMILES | IC50 [nM] |
| --- | --- |
| COc1ccc(-c2nc3ccc(C4CC5CCC(C4)N5C4CCN(C5CC5)CC4)cn3n2)cc1OC (stereo not drawn) [Example 146, 6-(8-(1-cyclopropylpiperidin-4-yl)-8-azabicyclo[3.2.1]octan-3-yl)-2-(3,4-dimethoxyphenyl)-[1,2,4]triazolo[1,5-a]pyridine] | 769 |
| COc1ccc(-c2nc3ccc(C4CC5CCC(C4)N5C4CCN(C(C)C)CC4)cn3n2)cc1OC (stereo not drawn) [Example 149, 2-(3,4-dimethoxyphenyl)-6-(8-(1-isopropylpiperidin-4-yl)-8-azabicyclo[3.2.1]octan-3-yl)-[1,2,4]triazolo[1,5-a]pyridine] | 217 |
| COc1ccc(-c2nc3c(C)cc(C4CC5CCC(C4)N5C4CCN(C5CC5)CC4)cn3n2)cc1OC (stereo not drawn) [Example 155, 6-(8-(1-cyclopropylpiperidin-4-yl)-8-azabicyclo[3.2.1]octan-3-yl)-2-(3,4-dimethoxyphenyl)-8-methyl-[1,2,4]triazolo[1,5-a]pyridine] | 214 |
| COc1ccc(-c2nc3c(C)cc(C4CC5CCC(C4)N5C4CCN(C(C)C)CC4)cn3n2)cc1OC (stereo not drawn) [Example 156, 2-(3,4-dimethoxyphenyl)-6-(8-(1-isopropylpiperidin-4-yl)-8-azabicyclo[3.2.1]octan-3-yl)-8-methyl-[1,2,4]triazolo[1,5-a]pyridine] | 234 |
| Cc1cc(C2CC3CCC(C2)N3C2CCN(C3CC3)CC2)cn2nc(-c3ccc(S(C)(=O)=O)cc3)nc12 (stereo not drawn) [Example 159, 6-(8-(1-cyclopropylpiperidin-4-yl)-8-azabicyclo[3.2.1]octan-3-yl)-8-methyl-2-(4-(methylsulfonyl)phenyl)-[1,2,4]triazolo[1,5-a]pyridine] | 594 |

Reference: patent US12486267B2, “Imidazo[1,2-A]pyridine and [1,2,4]triazolo[1,5-A]pyridine derivatives as TLR9 inhibitors for the treatment of fibrosis” (BRISTOL-MYERS SQUIBB COMPANY, priority 2020, dated 2025)
